From PubChem BioAssay AID365 (MTDP, 2006) come the findings set out here.

The source made the active and inactive calls. The rule behind the calls is not given here.

Usually IC50 stands for the point on the concentration scale where inhibition reaches its midpoint.

The experiment concerns the target Ribonuclease HI (Escherichia coli (strain K12)) (UniProt P0A7Y4). Briefly: E. coli RNase HI inhibitors, dose response, biochemical, FRET RNA/DNA duplex cleavage (AID 365). As to conditions: E. coli RNase H, FRET RNA/DNA cleavage fluorescence.

Ribonuclease HI (Escherichia coli (strain K12)), sequence (P0A7Y4 whole entry, looked up): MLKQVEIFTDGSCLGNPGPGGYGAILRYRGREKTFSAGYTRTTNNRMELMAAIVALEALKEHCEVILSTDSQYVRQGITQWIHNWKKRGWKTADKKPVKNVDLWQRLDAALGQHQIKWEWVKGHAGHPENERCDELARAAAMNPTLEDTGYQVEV

Regarding `CC(C)=CCc1ccc(O)c(=O)cc1C(C)C`, the IC50 is 100 µM. On to `Cc1cc(=O)c2c(O)c3c(O)cc(O)c4c5c(O)cc(O)c6c(O)c7c(=O)cc(C)c8c1c2c(c34)c(c65)c78`, for which the IC50 entry is “inactive”. On to `C=C/C(C)=C/C[C@]1(C)[C@H](C)CC[C@@]23C(=C[C@H](OC(=O)c4ccc(O)c(OC)c4)C[C@@H]12)[C@@H](OC(C)=O)O[C@H]3OC(C)=O`, for which the IC50 entry was “inactive”. For the compound `O=C1NC(=S)N(c2ccc(Cl)cc2)C(=O)/C1=C\C=C\c1ccccc1[N+](=O)[O-]`, the IC50 is 8.8 µM.

For the compound `CC(C)=CCC/C(C)=C/Cc1cc(/C=C/c2cc(O)c(C/C=C(\C)CCC=C(C)C)c(O)c2)cc(O)c1O`, the half-maximal inhibitory concentration (IC50) was 1.7 µM.

As for `O=C1C=C(NCCc2cc(Br)c(O)c(Br)c2)C(=O)c2ncccc21`, the IC50 entry was “inactive”.

For the compound `Cc1sc(NC(=O)c2ccc3c(c2)OCO3)c(C(N)=O)c1C`, the IC50 is 4 µM. Then `COc1ccc(/C=C\C(=O)c2c(-c3ccccc3)c3cc(C)ccc3[nH]c2=O)c(OC)c1`, with 9 µM; and `C=C1C(=O)O[C@@H]2/C=C(\C)CC/C=C(\C(=O)O)CC/C=C(\C)CC[C@H]12`, with > 100 µM (inactive). For the compound `CCOc1ccc(C2=CC(=O)C=CC2=O)cc1`, the IC50 entry is “inactive”. `Cc1ccc(S(=O)(=O)/N=C2\C=CC(=O)C=C2Cl)cc1`: the IC50 result was “inactive”. Then `O=C1C(Cl)=C/C(=N\S(=O)(=O)c2ccc(Cl)cc2)C(Cl)=C1Cl`, with “inactive”. In the case of `Cc1ccc(NC(=O)c2c(NC(=O)C(F)(F)F)sc(-c3ccccc3)c2C)c(C)c1`, the IC50 is 8.1 µM. On to `N#C/C(=C\Nc1ccc(S(=O)(=O)Nc2nccs2)cc1)c1nc(-c2ccc(Cl)cc2)cs1`, for which the IC50 was 1.2 µM. Then `CC(C)c1ccc(O)c(O)c(=O)c1` (tested in a mixture with another compound), with “inactive”. On to `C[C@]12CC[C@H]3[C@@H](CCC4=CC(=O)CC[C@@]43C)[C@@H]1CC[C@@H]2C(=O)COS(=O)(=O)c1ccc(Br)cc1`, for which the IC50 result is “inactive”. For `Cc1cc(C(=O)O)ccc1-n1c(C)ccc1C` the value was > 100 µM (inactive); for `Cc1cc(-c2ccco2)c(C#N)c(SCC(=O)c2ccc(O)c(O)c2)n1`, 1.1 µM; for `O=S(=O)(Nc1cccc(C(F)(F)F)c1)c1ccc2ccccc2c1`, “inactive”. With `COc1cccc(-c2nc3cc(NC(=O)/C=C\c4ccccc4)ccc3o2)c1`, the IC50 is 3.7 µM. For `O=[N+]([O-])c1ccc(S(=O)(=O)Cc2ccccc2)c2nonc12` the value was “inactive”; for `Cc1cc(O)c2c(c1O)C(=O)C13C(=C2O)C(=O)C2C(O)C1C1C(O)C3C(=O)C3=C(O)c4c(O)cc(C)c(O)c4C(=O)C321` (stereo not drawn), “inactive”; for `O=C1/C(=C/c2ccc(O)c(O)c2)SC(=S)N1C1CCCCC1`, 3 µM. In the case of `Nc1ccc(N=Nc2ccc(-c3ccc(O)cc3)cc2)c2ccc(S(=O)(=O)O)cc12`, the IC50 entry is “inactive”. For `Cc1ccc(N2C(=O)/C(=C/c3ccc(O)c(O)c3)SC2=S)cc1C` the value was 2 µM; for `Cc1ccccc1-n1c(O)c(C=C2C=CC=N2)c(=O)[nH]c1=S`, 8 µM; for `COc1ccc(N2C(=O)/C(=C\c3cn(CC(=O)Nc4ccccc4)c4ccccc34)C(=O)NC2=S)cc1`, 2.2 µM.

Regarding `CC(=O)O[C@H](C)[C@@H]1C2=C(C(=O)C[C@]1(C)O)C(=O)c1c(ccc(-c3ccc4c(c3O)C(=O)C3=C(C4=O)[C@@H]([C@@H](C)OC(C)=O)[C@@](C)(O)CC3=O)c1O)C2=O`, the IC50 is > 100 µM (inactive).
